Assay [1] deals with IEC-6 cells. Description: Floating cell count (detachment-induced cell death, apoptosis). To be noted: for number of floating cells compared to control: FIG. 4; for floating cells (percentage of total cell count): camptothecin exposure. In kind it is cell-based, rat. The method, then:
IEC-6 cells, having the ATCC designation CRL-1592, were obtained from the American Type Culture Collection at passage 13. The IEC-6 cells are normal, non-cancerous intestinal epithelial cells derived from fetal rat crypt cells. These cells are non-tumorigenic and retain the undifferentiated character of epithelial stem cells. The IEC-6 cell stock was maintained in T-150 flasks in a humidified, 37° C. incubator in an atmosphere of 90:10 air:CO2. The medium used was Dulbecco's modified Eagle medium (DMEM) (Gibco BRL, Grand Island, N.Y.) with 5% heat inactivated fetal bovine serum (FBS) (Sigma, St. Louis, Mo.) and 10 μg insulin and 50 μg gentamicin sulfate per ml. The stock was passaged weekly at 1:10, fed 3 times per week, and passages 15-20 were used. The cells were plated on day 0 at a density of 6.25×10^4 cells/cm^2 in T-150 flasks in DMEM/dFBS (dialyzed fetal bovine serum with 10,000 molecular weight cut-off) (Sigma, St. Louis, Mo.) with or without the treatment compound or compounds described in the Examples that follow. The cells were fed on day 2. On day 3, medium was removed and replaced with serum-free medium. On day 4, camptothecin (Sigma, St. Louis, Mo.) in a DMSO vehicle was added to a concentration of 20 μM into the serum-free medium containing the cells of Example 1 for 3 to 18 hours, with the vehicle (DMSO) added to controls. Detachment-induced cell death (DICD) is a well recognized form of apoptosis in anchorage-dependent cell types, such as intestinal epithelial cells. Floating cells were poured into a 25 ml tube and the monolayer was washed once with HBSS without calcium and magnesium. This wash was then combined into the tube with the floating cells. Attached cells were taken up with 0.05% trypsin plus 0.53 MM EDTA, followed by one wash of the flask with DMEM/5% FBS. Cell counts were determined separately for floating and attached cells by counting on a Model ZF Coulter counter. Floating cells were expressed as a percentage of the total cell count obtained by combining the number of floating and attached cells.

Assay [2] relates to caspase 3. The experiment in a line: Caspase 3 activity assay (DEVD-pNA) in cell lysates. In kind it is cell-based, rat. The following applies: for caspase 3 activity over time, attached cells: camptothecin exposure 0 to 18 hours, control cells or DFMO treated cells.
Method: In a separate flask, following camptothecin or DMSO addition, the cells were harvested after 16 hours in order to obtain a sufficient number of floating cells for analysis. Floating cells were then poured off to be counted and were combined with one wash with cold DPBS (Sigma, St. Louis, Mo.). The attached cells were then harvested for determination of caspase activity. 10 ml of DPBS was added to the flask and the monolayer was scraped and collected into a 25 ml tube. The flask was washed once with 10 ml of DPBS and combined into the 25 ml tube. The cells were pelleted by centrifugation at 800× g for 5 minutes. The supernatant was discarded and the pellet was resuspended in 1 ml of cold DPBS and transferred into a microfuge tube. The cells were pelleted by centrifugation at 10,000× g at 4° C. for 10 minutes. The supernatant was discarded and the cells were lysed in 100 ml of ice cold cell lysis buffer (50 mM HEPES, pH 7.4, 0.1% CHAPS, 1 mM DTT, 0.1 mM EDTA, 0.1% NP40) (Sigma, St. Louis, Mo.). The assay for caspase activity was carried out in a 96-well plate. Into each well was placed 20 μl of cell lysate, 70 μl of assay buffer (50 mM HEPES, pH 7.4, 0.1% CHAPS, 100 mM NaCl, 10 mM DTT, 1 mM EDTA ) and 10 μl of caspase 3 calorimetric substrate (2 mM DEVD-pNA prepared in assay buffer, a caspase specific peptide that is conjugated to the chromogen p-nitroanilide) (Biomol Research Laboratories, Plymouth Meeting, Pa.). The 96-well plate was incubated at 37° C. for 2 hours, during which time the caspase in the sample was allowed to cleave the chromophore pNA from the substrate molecule. Absorbance readings at 405 nm were made after the 2 hour incubation, with the caspase activity being directly proportional to the color reaction. Protein was determined for each sample using the BCA method (Pierce, Rockford, Ill.) and a standard curve for p-nitroanilide was carried out. Results for caspase activity were expressed as pmol of pNA released/mg protein/minute.
The subject of assay [3] is IEC-6 cells. Description: Intracellular polyamines by HPLC. To be noted: for level of putrescine in the cells / level of spermidine in the cells / level of spermine in the cells: cells grown in presence of DFMO or DEGBG. In kind it is cell-based, rat. The method, then: IEC-6 cells were grown for 4 days in the presence or absence of DFMO (Marion Merrel Dow, Cincinnati, Ohio) the highly specific inhibitor of ODC. DFMO treatment depletes putrescine within 3 hours. Depletion of spermidine requires 24 hours and significant depletion (about 50%) of spermine requires 3 days.
Intracellular polyamines were analyzed by high performance liquid chromatography. Cells were plated in 60 mm dishes at 6.25×10^4 cells/cm^2 and grown in DMEM/dFBS with or without DFMO or DEGBG. After washing the monolayer three times with ice-cold DPBS, 0.5 M perchloric acid was added and the samples were then frozen at −80° C. until ready for extraction, dansylation, and HPLC. The standard curve encompassed the range of 0.31-10 μM. Values that fell >25% below the curve were considered not detectable. The level of […] was determined by the Bradford method, as described in Anal. Biochem., 72:248-254 (1976).

Assay [4] has as its system caspase 3. Description: Western blot of caspase 3 levels. In kind it is cell-based, rat. The following applies: polyamine depleted cells (DFMO). The method, then: Total cell protein (50 μg) from cell extracts prepared for caspase 3 assay was separated on 15% SDS-PAGE and transferred to nitrocellulose membranes for western blotting. Equal loading of protein was confirmed by staining the nitrocellulose membrane with Ponceau S (Sigma, St. Louis, Mo.). The membrane was then probed with an antibody directed against caspase 3 (CPP32) (Santa Cruz Biotechnology, Santa Cruz, Calif.). The immunocomplexes were visualized by the enhanced chemiluminescence detection system.
A general note: Immunoblotting shows a protein as a band on a membrane.

For assay [5], the system named is CaCo-2 cells. Description: Floating cell count in cancerous cells. In kind it is cell-based, human. The method, then:
Cancerous human intestinal CaCo-2 cells were grown in similar culture media as described in Example 1, except that one group of the cells was grown in a medium not containing DFMO and another group was grown in a medium containing DFMO. After four days of growth, camptothecin at a dose of 20 μM was added to the culture medium of each of the groups. After 6 hours, the number of floating cells in the media of the two groups of cells was determined. The study was repeated using a different inducer of apoptosis, a combination of 20 ng/ml of tumor necrosis factor-α (TNF-α) and 25 μg/ml of cycloheximide.

Assay [6] deals with CaCo-2 cells. Description: Examples 1 to 8 repeated in cancerous cells. In kind it is cell-based, human. The following applies: CaCo-2 cells substituted for IEC-6. The source says:
Studies described in Examples 1 to 8 are repeated, except that cancerous human intestinal CaCo-2 cells (ATCC no. HTB37) are substituted for the IEC-6 rat intestinal cell lines.

Assay [7] concerns mast cell tumor. Description: Dog with mast cell tumor treated with Co60 gamma radiation. To be noted: DFMO 100 mg/kg/day orally for four days, adult dog. In kind it is in vivo. As to the method: DFMO at a dosage of 100 mg/kg/day is administered orally for four days to an adult dog suffering from a mast cell tumor on one of its rear legs. The tumor is treated in multiple sessions by exposure to Co^60 gamma radiation as indicated for this type of tumor. The field of exposure to the radiation exceeds the boundaries of the tumor.

Assay [8] deals with IEC-6 cells. The experiment in a line: Nucleosomal DNA fragmentation assay. In kind it is cell-based, rat. The following applies: camptothecin 20 μM. As to the method: Cells were collected for determining the presence or absence of DNA fragmentation. After treatment with camptothecin (or vehicle), floating cells were poured off and combined with one DPBS wash of the monolayer. […] The attached cells were collected for DNA fragmentation by scraping in DPBS and combining with one wash of the flask with DPBS. […] The nucleosomal fragmentation assay was carried out by isolating DNA from the cells using the TACS apoptotic DNA laddering kit (Trevigen, Gaithersburg, Md.) and analyzing the labeled DNA by agarose gel electrophoresis following the manufacturer's instructions.

Assay [9] relates to caspase 3. To be noted: putrescine up to 5 μM added to cell extracts from DFMO treated cells.
The mark [10] stands for this setting: 0 time, control cells or DFMO treated cells.
The mark [11] stands for this setting: 18 hours, control cells or DFMO treated cells.
Setting [12] is: cells grown 4 days with DFMO, 6 hours after camptothecin.

Molecules are shown by their SMILES. A value given as a limit tells only on which side of the number the result lay.

The values that follow come from patent US6936637B2, “Prevention of apoptosis in non-cancerous cells” (University of Tennessee Research Foundation, priority 1999, dated 2005).

With `NCCCC(N)(C(=O)O)C(F)F` (racemic) [DFMO, DL-œ-difluoromethylornithine], the “number of floating cells compared to control” value in assay [1] (DFMO alone) is “decreased the number of floating cells”. Moreover, the “delay of onset of apoptosis” value in assay [1] (DFMO treated cells exposed to camptothecin) is reported as “up to 12 hours”. In addition, the “floating cells (percentage of total cell count)” value stood at 2.2% in [1] (setting [10]); 9.3% in assay [1] (12 hours, DFMO treated cells); 29.1% in assay [1] (setting [11]). Further, the “decrease in the number of floating cells compared to control cells treated with camptothecin” value in assay [1] (setting [12]) is on record as roughly 3 fold. In [1] (cells grown 4 days with DFMO, DMSO (vehicle) or camptothecin, 6 hours), the protection against apoptosis result is “protected against both DMSO (vehicle) and camptothecin-induced apoptosis”. For the same compound, the “percentage of floating cells” value stood at 19.2% in [1] (day 1 of treatment), 12.4% in assay [1] (day 2 of treatment) and 2.2% in assay [1] (day 4 of treatment). The “exposure to camptothecin after which significant increase in caspase 3 activity was observed” value in [2] (DFMO treated cells) turned out to be 18 h. Also, in [2], the “caspase 3 activity over time, attached cells” value is “did not show remarkable increases in caspase 3 activity for up to 12 hours”. The “lower caspase 3 activity compared to control” value in assay [2] (setting [12]) was “approximately 50%”. Moreover, the “time required for depletion of spermidine” value in assay [3] (DFMO treatment of IEC-6 cells) worked out at 24 h. The “time required for significant depletion of spermine” value in [3] (DFMO treatment of IEC-6 cells) is reported as 3 days. Moreover, in assay [3] (DFMO treatment of IEC-6 cells), the “time to depletion of putrescine” value was no more than 3 h. The depletion of spermine entry in assay [3] (DFMO treatment, 3 days) is “about 50%”. Besides, in assay [3], the “level of putrescine in the cells” value was “decreases”. For the same compound, the “level of spermidine in the cells” value in assay [3] is reported as “decreases”. The “level of spermine in the cells” value in assay [3] is given as “decreases”. Also, the “level of caspase 3 (Western blot) compared with controls” value in [4] is listed as “not significantly different”. Besides, the “protection of cancerous cells from apoptosis” value in assay [5] (apoptosis induced by camptothecin or TNF-α + cycloheximide) was “did not protect the cancerous cells from apoptosis”. The “number of floating cells” value is on record as 6.2 +/− .6 in assay [5] (with DFMO 4 days, 20 ng/ml TNF-α and 25 μg/ml cycloheximide); 3.7 +/− .24 in [5] (with DFMO 4 days, camptothecin 20 μM, 6 hours); 4.8 +/− .5 in assay [5] (with DFMO 4 days, no TNF-α + cycloheximide); 3.1 +/− .06 in assay [5] (with DFMO 4 days, no camptothecin). Moreover, the inhibition of apoptosis result in assay [6] is on record as “No inhibition of apoptosis is observed”. In addition, the “death of surrounding normal tissues” value in [7] is reported as “visually noticeable decrease in death of the surrounding normal tissues”. Further, in [7], the effect on tumor result is reported as “the tumor is killed”.
As to `CCC(=NNC(=N)N)C(CC)=NNC(=N)N` [DEGBG, diethylglyoxal bis-(guanylhydrazone)], the “percentage of floating cells” value in assay [1] (day 1 of treatment) came out at 26.6%. Also, the “percentage of floating cells” value in [1] (day 2 of treatment) was found to be 26.9%. Besides, the “percentage of floating cells” value in [1] (day 4 of treatment) was 23.3%. For the same compound, in assay [3], the “level of putrescine in the cells” value is “significantly increased”, the “level of spermidine in the cells” value is given as “decreasing” and the “level of spermine in the cells” value is “decreasing”.
As to `CC[C@@]1(O)C(=O)OCc2c1cc1n(c2=O)Cc2cc3ccccc3nc2-1` [camptothecin], the “increase in the number of floating cells compared to DMSO control group” value in [1] (camptothecin 20 μM, within 6 hours) was 8 fold. Besides, the results for the “floating cells (percentage of total cell count)” value in assay [1] (setting [10]) and in [1] (setting [11]) were 6.2% and 49.3%, respectively. For the same compound, the “onset of camptothecin induced apoptosis (number of floating cells)” value in [1] (control cells (no DFMO)) was no more than 3 h. Also, the “caspase 3 activity, detached cells” value in assay [2] (camptothecin 20 μM, detached (floating) cells) is recorded as “increased caspase 3 activity”. Further, in [2] (camptothecin 20 μM, harvested after 16 hours, attached cells), the “increase in caspase 3 activity, attached cells” value came to 7 fold. In [2], the “caspase 3 activity over time, attached cells” value is “increased progressively with time”. The “DNA fragmentation, attached cells” value in assay [8] (attached cells) was “did not show remarkable DNA fragmentation”. In addition, the “DNA fragmentation, detached cells” value in [8] (detached (floating) cells) is recorded as “showed characteristic nucleosomal DNA fragments”. For the same compound, the “number of floating cells” value in assay [5] (no DFMO, camptothecin 20 μM, 6 hours) is recorded as 2.7 +/− .06.
Turning to `NCCCCN` [putrescine], the “number of floating cells compared to control” value in [1] (exogenous 10 μM putrescine along with DFMO) was “restored the number of floating cells to control levels”. Also, in assay [9], the “effect on caspase activity” value is given as “did not reveal any effect”.
